US9988635B2, “Modulation of growth hormone receptor expression and insulin-like growth factor expression” (Antisense Therapeutics Limited, priority 2003, dated 2018)
In the oligonucleotide strings, read from the 5' end, every base follows the letter of its sugar. An asterisk marks phosphorothioate; unmarked linkages are phosphodiester. Other units and linkages are bracketed, terminal groups are in braces. A string of capitals states the bases alone. e = 2'-O-(2-methoxyethyl) (MOE); [5mC] = 5-methylcytosine; d = 2'-deoxy (DNA)

System: mouse growth hormone receptor mRNA
Test: Inhibition of mouse growth hormone receptor mRNA levels in b.END cells, quantitative real-time PCR, incl. dose-response
Type: cell-based
Conditions: averages from three experiments
Method: The mouse brain endothelial cell line b.END was obtained from Dr. Werner Risau at the Max Plank Instititute (Bad Nauheim, Germany). b.END cells were routinely cultured in DMEM, high glucose (Gibco/Life Technologies, Gaithersburg, Md.) supplemented with 10% fetal calf serum (Gibco/Life Technologies, Gaithersburg, Md.). Cells were routinely passaged by trypsinization and dilution when they reached 90% confluence. Cells were seeded into 96-well plates (Falcon-Primaria #3872) at a density of 3000 cells/well for use in RT-PCR analysis.
When cells reached 65-75% confluency, they were treated with oligonucleotide. For cells grown in 96-well plates, wells were washed once with 100 μL OPTI-MEM™-1 reduced-serum medium (Invitrogen Corporation, Carlsbad, Calif.) and then treated with 130 μL of OPTI-MEM™-1 containing 3.75 μg/mL LIPOFECTIN™ (Invitrogen Corporation, Carlsbad, Calif.) and the desired concentration of oligonucleotide. Cells are treated and data are obtained in triplicate. After 4-7 hours of treatment at 37° C., the medium was replaced with fresh medium. Cells were harvested 16-24 hours after oligonucleotide treatment.
Total RNA was isolated using an RNEASY 96™ kit and buffers purchased from Qiagen Inc. (Valencia, Calif.) following the manufacturer's recommended procedures. Briefly, for cells grown on 96-well plates, growth medium was removed from the cells and each well was washed with 200 μL cold PBS. 150 μL Buffer RLT was added to each well and the plate vigorously agitated for 20 seconds. 150 μL of 70% ethanol was then added to each well and the contents mixed by pipetting three times up and down. The samples were then transferred to the RNEASY 96™ well plate attached to a QIAVAC™ manifold fitted with a waste collection tray and attached to a vacuum source. Vacuum was applied for 1 minute. 500 μL of Buffer RW1 was added to each well of the RNEASY 96™ plate and incubated for 15 minutes and the vacuum was again applied for 1 minute. An additional 500 μL of Buffer RW1 was added to each well of the RNEASY 96™ plate and the vacuum was applied for 2 minutes. 1 mL of Buffer RPE was then added to each well of the RNEASY 96™ plate and the vacuum applied for a period of 90 seconds. The Buffer RPE wash was then repeated and the vacuum was applied for an additional 3 minutes. The plate was then removed from the QIAVAC™ manifold and blotted dry on paper towels. The plate was then re-attached to the QIAVAC™ manifold fitted with a collection tube rack containing 1.2 mL collection tubes. RNA was then eluted by pipetting 140 μL of RNAse free water into each well, incubating 1 minute, and then applying the vacuum for 3 minutes.
Quantitation of growth hormone receptor mRNA levels was accomplished by real-time quantitative PCR using the ABI PRISM™ 7600, 7700, or 7900 Sequence Detection System (PE-Applied Biosystems, Foster City, Calif.) according to manufacturer's instructions. This is a closed-tube, non-gel-based, fluorescence detection system which allows high-throughput quantitation of polymerase chain reaction (PCR) products in real-time. As opposed to standard PCR in which amplification products are quantitated after the PCR is completed, products in real-time quantitative PCR are quantitated as they accumulate. This is accomplished by including in the PCR reaction an oligonucleotide probe that anneals specifically between the forward and reverse PCR primers, and contains two fluorescent dyes. A reporter dye (e.g., FAM or JOE, obtained from either PE-Applied Biosystems, Foster City, Calif., Operon Technologies Inc., Alameda, Calif. or Integrated DNA Technologies Inc., Coralville, Iowa) is attached to the 5′ end of the probe and a quencher dye (e.g., TAMRA, obtained from either PE-Applied Biosystems, Foster City, Calif., Operon Technologies Inc., Alameda, Calif. or Integrated DNA Technologies Inc., Coralville, Iowa) is attached to the 3′ end of the probe. […]

Row | Substance | % INHIB of mouse growth hormone receptor mRNA levels
1 | 227454 (antisense eA*eG*eT*eT*eG*dA*dA*dG*dT*dA*dA*d[5mC]*dA*dG*d[5mC]*eT*eG*eT*eT*eT) [compound 227454] | 69%
2 | 227457 (antisense eG*eA*eA*eT*eT*dA*dT*d[5mC]*d[5mC]*dA*dT*d[5mC]*d[5mC]*d[5mC]*dT*eT*e[5mC]*eA*eG*eA) [compound 227457] | 67%
3 | 227498 (antisense eT*eT*eG*eT*eA*dA*dA*dA*dA*dT*d[5mC]*dT*dA*dA*d[5mC]*eT*eT*eG*eT*eT) [compound 227498] | 49%
4 | 227492 (antisense eT*eA*eA*eA*eA*d[5mC]*dA*dT*dA*dG*dT*dT*dT*dT*dG*eG*eT*eT*eT*eA) [compound 227492] | 7%
5 | 227520 (antisense e[5mC]*eA*eT*e[5mC]*eT*dT*dA*dA*dT*d[5mC]*d[5mC]*dT*dT*dG*dG*eA*eA*eA*e[5mC]*eA) [compound 227520] | 42%
6 | 227444 (antisense eA*eT*eG*eG*e[5mC]*dT*dG*d[5mC]*dG*d[5mC]*d[5mC]*dT*dG*d[5mC]*dT*eT*eG*eG*e[5mC]*eA) [compound 227444] | 53%
7 | 227495 (antisense eT*e[5mC]*e[5mC]*eT*eG*dA*dA*d[5mC]*dT*dG*d[5mC]*dA*dA*dA*dA*eG*e[5mC]*e[5mC]*eA*e[5mC]) [compound 227495] | 47%
8 | 227515 (antisense eA*eA*eA*eT*eT*d[5mC]*dT*dT*dA*d[5mC]*dT*dT*dG*dT*d[5mC]*e[5mC]*e[5mC]*e[5mC]*eA*eG) [compound 227515] | 37%
9 | 227510 (antisense e[5mC]*eT*e[5mC]*e[5mC]*eA*dG*dA*d[5mC]*dG*dT*dG*dA*d[5mC]*d[5mC]*d[5mC]*eG*eA*e[5mC]*eT*e[5mC]) [compound 227510] | 64%
10 | 227447 (antisense eG*e[5mC]*eT*eG*eG*dT*dG*dT*dA*dG*d[5mC]*d[5mC]*dT*d[5mC]*dA*e[5mC]*eT*eT*e[5mC]*e[5mC]) [compound 227447] | 77%
11 | 227503 (antisense eT*eA*e[5mC]*e[5mC]*eT*dG*dA*dG*dA*d[5mC]*d[5mC]*d[5mC]*d[5mC]*dA*dG*eT*eT*e[5mC]*eA*eT) [compound 227503] | 24%
12 | 227463 (antisense eA*eT*e[5mC]*eA*eG*d[5mC]*dA*dT*d[5mC]*dT*dT*dA*dA*dT*d[5mC]*e[5mC]*eT*eT*eT*eG) [compound 227463] | 39%
13 | 227450 (antisense eT*eG*eG*e[5mC]*eT*dT*dT*d[5mC]*d[5mC]*d[5mC]*dT*dT*dT*dT*dA*eG*e[5mC]*eA*eT*eA) [compound 227450] | 71%
14 | 227465 (antisense eT*eG*eA*eG*eA*dA*dG*dA*dT*d[5mC]*dT*dG*dG*dA*dT*e[5mC]*eA*eA*eT*e[5mC]) [compound 227465] | 51%
15 | 227470 (antisense e[5mC]*eT*e[5mC]*e[5mC]*eA*dA*dG*dG*dA*dT*dA*d[5mC]*d[5mC]*dA*dG*e[5mC]*eT*eG*eA*eT) [compound 227470] | 82%
16 | 227446 (antisense eA*e[5mC]*eA*eA*eA*dG*dA*dT*d[5mC]*d[5mC]*dA*dT*dA*d[5mC]*d[5mC]*eT*eG*eA*eG*eA) [compound 227446] | 87%
17 | 227493 (antisense eT*e[5mC]*e[5mC]*e[5mC]*eA*dA*d[5mC]*dA*d[5mC]*dA*dG*dA*dT*dT*dT*eA*eA*eA*eA*e[5mC]) [compound 227493] | 51%

Row | Substance | % INHIB of mouse growth hormone receptor mRNA levels
18 | 227473 (antisense eA*eA*eG*eT*e[5mC]*dA*dA*dT*dG*dT*dT*dT*dG*d[5mC]*d[5mC]*eA*eG*eT*eG*eA) [compound 227473] | 71%
19 | 227511 (antisense e[5mC]*e[5mC]*eA*e[5mC]*eG*d[5mC]*dA*d[5mC]*d[5mC]*d[5mC]*dA*d[5mC]*dA*dA*dG*e[5mC]*eG*eG*eA*eT) [compound 227511] | 71%
20 | 227487 (antisense eT*e[5mC]*eA*eG*eG*d[5mC]*dA*dA*dA*dG*dG*d[5mC]*dA*dA*dA*eG*e[5mC]*eA*eG*eT) [compound 227487] | 44%
21 | 227512 (antisense eT*eA*eA*e[5mC]*e[5mC]*dT*dA*dT*dG*dG*dT*dG*dA*d[5mC]*dT*eA*eT*eG*eT*e[5mC]) [compound 227512] | 36%
22 | 227472 (antisense eA*eG*eA*eG*e[5mC]*d[5mC]*dA*dA*dG*dG*dG*dA*dA*dG*d[5mC]*eA*eT*e[5mC]*eA*eT) [compound 227472] | 42%
23 | 227513 (antisense eT*eA*e[5mC]*e[5mC]*eT*dG*dA*dG*dA*d[5mC]*d[5mC]*dT*dG*d[5mC]*dA*eA*eG*eA*e[5mC]*eA) [compound 227513] | 40%
24 | 227471 (antisense eA*eG*eG*e[5mC]*eA*d[5mC]*dA*dA*dG*dA*dG*dA*dT*d[5mC]*dA*eG*e[5mC]*eT*eT*e[5mC]) [compound 227471] | 52%
25 | 227509 (antisense eG*e[5mC]*eA*eG*eT*dT*d[5mC]*dT*dA*dT*d[5mC]*dA*dG*dA*dA*e[5mC]*eT*eT*eT*eG) [compound 227509] | 82%
26 | 227478 (antisense eT*eT*eT*eT*eT*dG*dG*d[5mC]*dA*dT*d[5mC]*dT*dG*dA*d[5mC]*eT*e[5mC]*eA*e[5mC]*eA) [compound 227478] | 68%
27 | 227505 (antisense eT*eA*e[5mC]*e[5mC]*eT*dG*dA*dG*dA*d[5mC]*d[5mC]*d[5mC]*dA*d[5mC]*dA*eA*eG*e[5mC]*eG*eG) [compound 227505] | 39%
28 | 227462 (antisense eG*e[5mC]*eT*eT*eT*dG*dA*dA*dA*dA*dT*dA*dT*dA*dA*e[5mC]*eT*eA*e[5mC]*eA) [compound 227462] | 31%
29 | 227467 (antisense e[5mC]*eA*eT*e[5mC]*eA*dT*dT*dG*dT*dA*dG*dA*dA*dG*dT*e[5mC]*eG*eG*eG*eT) [compound 227467] | 33%
30 | 227477 (antisense e[5mC]*eA*e[5mC]*eT*eG*dT*dT*d[5mC]*dA*dT*dG*d[5mC]*dT*dG*dT*eA*eA*eT*eT*eT) [compound 227477] | 61%
31 | 227456 (antisense eG*eT*e[5mC]*e[5mC]*eA*dG*dT*dT*dG*dA*dG*dG*d[5mC]*d[5mC]*dA*eA*eT*eG*eG*eG) [compound 227456] | 97%
32 | 227443 (antisense eT*eG*e[5mC]*eT*eT*dG*dG*d[5mC]*dA*dG*d[5mC]*dT*d[5mC]*dG*dT*eG*eG*eG*eT*eT) [compound 227443] | 0%
33 | 227479 (antisense eA*eT*eG*eT*e[5mC]*d[5mC]*dT*d[5mC]*dT*dT*dG*dG*dT*dT*dA*eA*eA*eG*e[5mC]*eT) [compound 227479] | 59%
